From patent publication US20230130925A1 (priority 2020, published 2023)
Where two headings read alike, the source gives them in different places.

What was measured:
[1] = system: Influenza A
[2] = system: SARS-cov2; conditions: person

With `Cc1nc(Nc2ncc(C(=O)Nc3c(C)cccc3Cl)s2)cc(N2CCN(CCO)CC2)n1` [Dasatinib, reference compound] the tolerability ([1]; human, in vivo, po) was “tolerates the medication well”.

In the case of “Tocilizumab: anti-IL-6 receptor antibody molecule”, the “renal and neurological status” value ([1]; person with ARDS and shock, after Tocilizumab 600 mg i.v.) is reported as “continues to have renal and neurological deterioration”, the clinical course ([2]; COPD and diabetes, O2 saturation 87%, Tocilizumab 8 mg/Kg by auto-injector) is reported as “stabilization” and the “patient's condition” value ([2]; fever >38.5° C., O2 saturation 92%, Tocilizumab 8 mg/Kg intravenous infusion) is reported as “condition stabilizes initially”. For the same molecule, the tolerability ([2]; Tocilizumab 8 mg/Kg by auto-injector) was “tolerates the medication well”.

B1: Sarilumab: anti-IL-6 receptor antibody molecule (antibody, chains of the INN, looked up, V domains shown)
VH: EVQLVESGGGLVQPGRSLRLSCAASRFTFDDYAMHWVRQAPGKGLEWVSGISWNSGRIGYADSVKGRFTISRDNAENSLFLQMNGLRAEDTALYYCAKGRDSFDIWGQGTMVTVSS
VL: DIQMTQSPSSVSASVGDRVTITCRASQGISSWLAWYQQKPGKAPKLLIYGASSLESGVPSRFSGSGSGTDFTLTISSLQPEDFASYYCQQANSFPYTFGQGTKLEIK
B1 was tested, and the tolerability ([2]; COPD and hypertension, O2 saturation 89%, Sarilumab 200 mg subcutaneous, self-administered) was “tolerates the medication well”.
